≈ marks a conversion by molar mass, not a printed value. Like-named read-outs stand apart in the source and are kept apart here.
Columns and labels:
VE 150 (VanB) = test: MIC, VanB-type VRE strain VE 150; format: cell-based, Enterococcus; conditions: VE 150, VanB; read-out: MIC
Method: (§1) The minimum inhibitory concentration (MIC) was determined using the broth microdilution method according to the antimicrobial susceptibility testing standards of the clinical and laboratory standards institute ([Clinical and Laboratory Standards Institute [CLSI], 2012]). Ultrapure water and non-inoculated broth were used as controls. In one case, a final concentration of 10 μM vancomycin was included with the vancomycin analog or control antibiotic.

VE 149 (VanB) = test: MIC, VanB-type VRE strain VE 149; format: cell-based, Enterococcus; conditions: VE 149, VanB; read-out: MIC
Method: as §1

E. faecalis VRE 6 = test: MIC, broth microdilution, vancomycin-resistant E. faecalis VRE 6 (VanA); format: cell-based, Enterococcus faecalis
In short: (§2)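 Read-out: lowest concentration inhibiting growth in broth microdilution, CLSI method. Water and broth-only wells acted as controls; in one case 10 μM vancomycin (final) was present with the compound.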

E. faecalis VRE 37 = test: MIC, broth microdilution, vancomycin-resistant E. faecalis VRE 37 (VanA); format: cell-based, Enterococcus faecalis
In short: as §2

[1] = system: human cervix carcinoma (HeLa) cells; test: Cytostatic activity, HeLa cell proliferation; format: cell-based; conditions: mean ± SD of three experiments; highest concentration tested 250 µM; 4 days; read-out: Toxicity (IC50) HeLa
In short: (§3)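 Test compounds, serially diluted, received an equal volume of cell suspension at 300,000–500,000 cells/mL. After 37°C incubation (2 days for L1210, 3 for CEM, 4 for HeLa), cells were enumerated by Coulter counting and 50%-inhibitory concentrations calculated per cell type.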

VE 152 (VanB) = test: MIC, VanB-type VRE strain VE 152; format: cell-based, Enterococcus; conditions: VE 152, VanB; read-out: MIC
Method: as §1

[2] = system: Clostridium difficile AIU ribotype 027; test: MIC, plate drop assay, C. difficile AIU ribotype 027; format: cell-based; conditions: C. difficile AIU ribotype 027
In short: (§4)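 Lawns of each strain were made in soft BHI agar (0.4%) supplemented with CaCl2⋅2H2O and MgCl2⋅6H2O. Twofold compound dilutions (10 μL) were spotted, air-dried and incubated overnight at 37°C anaerobically; MIC read as cleared spots, in triplicate with water as negative control.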

33 clinical VRE isolates = test: MIC against a set of 33 clinical VRE isolates (range, MIC50, TI); format: cell-based, Enterococcus faecalis
Method: as §1

MRSA KS2 = test: MIC, broth microdilution, MRSA KS2; format: cell-based, Staphylococcus aureus
In short: as §2

[3] = system: 24 clinical MRSA isolates; test: MIC against a set of 24 clinical MRSA isolates (range, MIC50, TI); format: cell-based, Staphylococcus aureus
Method: as §1

VE 82 (VanC1) = test: MIC, VanC1-type VRE strain VE 82; format: cell-based, Enterococcus gallinarum; conditions: VE 82, VanC1; read-out: MIC
Method: as §1

VE 148 (VanB) = test: MIC, VanB-type VRE strain VE 148; format: cell-based, Enterococcus; conditions: VE 148, VanB; read-out: MIC
Method: as §1

[4] = system: Murine leukemia (L1210) cells; test: Cytostatic activity, L1210 cell proliferation; format: cell-based; conditions: mean ± SD of three experiments; highest concentration tested 250 µM; 2 days; read-out: Toxicity (IC50) L1210
In short: as §3

VE 157 (VanB) = test: MIC, VanB-type VRE strain VE 157; format: cell-based, Enterococcus; conditions: VE 157, VanB; read-out: MIC
Method: as §1

[5] = system: human T-lymphocyte (CEM) cells; test: Cytostatic activity, CEM cell proliferation; format: cell-based; conditions: mean ± SD of three experiments; highest concentration tested 250 µM; 3 days; read-out: Toxicity (IC50) CEM
In short: as §3

E. faecalis VRE 29 = test: MIC, broth microdilution, vancomycin-resistant E. faecalis VRE 29 (VanA); format: cell-based, Enterococcus faecalis
In short: as §2

S. aureus VRSA = test: MIC, broth microdilution, vancomycin-resistant S. aureus (VRSA); format: cell-based, Staphylococcus aureus
In short: as §2

S. aureus VISA/HIP5827 = test: MIC, broth microdilution, vancomycin-intermediate S. aureus VISA HIP5827; format: cell-based, Staphylococcus aureus; conditions: VISA/HIP5827; ratio of MIC of vancomycin and MIC of analogue
In short: as §2

E. faecalis VSE 1 = test: MIC, broth microdilution, vancomycin-sensitive E. faecalis (VSE 1); format: cell-based, Enterococcus faecalis
In short: as §2

E. faecalis VRE 53 = test: MIC, broth microdilution, vancomycin-resistant E. faecalis VRE 53 (VanA); format: cell-based, Enterococcus faecalis
In short: as §2

[6] = system: L1210, CEM and HeLa cell lines; test: Cytostatic activity, average or summary over L1210, CEM and HeLa; format: cell-based
In short: as §3

MRSA = test: Minimum bactericidal concentration against MRSA; format: cell-based, Staphylococcus aureus
Method: Plates were incubated overnight at 37°C and colony growth was inspected.

[7] = system: S. aureus VSSA (ATCC 6538); test: MIC, broth microdilution, vancomycin-sensitive S. aureus (VSSA/MSSA, ATCC 6538); format: cell-based, Staphylococcus aureus
In short: as §2

MRSA KS6 = test: MIC, broth microdilution, MRSA KS6; format: cell-based, Staphylococcus aureus
In short: as §2

MRSA KS89 = test: MIC, broth microdilution, MRSA KS89; format: cell-based, Staphylococcus aureus
In short: as §2

MRSA KS1 = test: MIC, broth microdilution, MRSA KS1; format: cell-based, Staphylococcus aureus
In short: as §2

[8] = system: Clostridium difficile ATJ ribotype 014/20; test: MIC, plate drop assay, C. difficile ATJ ribotype 014/20; format: cell-based; conditions: C. difficile ATJ ribotype 014/20
In short: as §4

## CNC(CC(C)C)C(=O)NC1C(=O)NC(CC(N)=O)C(=O)NC2C(=O)NC3C(=O)NC(C(=O)NC(C(=O)NCCCNC(=O)c4cc5ccccc5[nH]4)c4cc(O)cc(O)c4-c4cc3ccc4O)C(O)c3ccc(c(Cl)c3)Oc3cc2cc(c3OC2OC(CO)C(O)C(O)C2OC2CC(C)(N)C(O)C(C)O2)Oc2ccc(cc2Cl)C1O (stereo not shown) [Vanc-24]
VE 150 (VanB)
  MIC: 1.56 µM (≈ 2.57 µg/mL)
VE 149 (VanB)
  MIC: 1.56 µM (≈ 2.57 µg/mL)
E. faecalis VRE 6; Enterococcus faecalis VRE 6 (vancomycin-resistant), read-out: MIC
  MIC: 0.78 µM (≈ 1.29 µg/mL)
E. faecalis VRE 6; VRE 6, ratio of MIC of vancomycin and MIC of analogue
  MIC-fold improvement vs. vancomycin: 256
E. faecalis VRE 37; Enterococcus faecalis VRE 37 (vancomycin-resistant), read-out: MIC
  MIC: 6.25 µM (≈ 10.3 µg/mL)
E. faecalis VRE 37; VRE 37, ratio of MIC of vancomycin and MIC of analogue
  MIC-fold improvement vs. vancomycin: 64
[1]
  IC50: 83 ± 9 µM
VE 152 (VanB)
  MIC: 1.56 µM (≈ 2.57 µg/mL)
[2]
  MIC-fold improvement vs. vancomycin: 14
33 clinical VRE isolates; 33 clinical VRE isolates
  MIC Range: 3.13 to 50 µM
33 clinical VRE isolates; in vitro therapeutic index, VRE
  TI (IC50/MIC50): 26
33 clinical VRE isolates; median MIC, 33 clinical VRE isolates, read-out: MIC50
  MIC50: 6.25 µM (≈ 10.3 µg/mL)
MRSA KS2; MRSA KS2, ratio of MIC of vancomycin and MIC of analogue
  MIC-fold improvement vs. vancomycin: 4
MRSA KS2; Staphylococcus aureus MRSA KS2, read-out: MIC
  MIC: 0.20 µM (≈ 0.33 µg/mL)
[3]; 24 clinical MRSA isolates
  MIC Range: 0.10 to 0.78 µM
[3]; in vitro therapeutic index, MRSA
  TI (IC50/MIC50): 825
[3]; median MIC, 24 clinical MRSA isolates, read-out: MIC50
  MIC50: 0.20 µM (≈ 0.33 µg/mL)
VE 82 (VanC1)
  MIC: 0.39 µM (≈ 0.643 µg/mL)
VE 148 (VanB)
  MIC: 3.13 µM (≈ 5.16 µg/mL)
[4]
  IC50: 164 ± 20 µM
VE 157 (VanB)
  MIC: 1.56 µM (≈ 2.57 µg/mL)
[5]
  IC50: 248 ± 3 µM
E. faecalis VRE 29; Enterococcus faecalis VRE 29 (vancomycin-resistant), read-out: MIC
  MIC: 12.5 µM (≈ 20.6 µg/mL)
E. faecalis VRE 29; VRE 29, ratio of MIC of vancomycin and MIC of analogue
  MIC-fold improvement vs. vancomycin: 32
S. aureus VRSA; Staphylococcus aureus VRSA, read-out: MIC
  MIC: 1.56 µM (≈ 2.57 µg/mL)
S. aureus VRSA; VRSA, ratio of MIC of vancomycin and MIC of analogue
  MIC-fold improvement vs. vancomycin: 64
S. aureus VISA/HIP5827
  MIC-fold improvement vs. vancomycin: 32
E. faecalis VSE 1; Enterococcus faecalis VSE 1 (vancomycin-sensitive), read-out: MIC
  MIC: 0.20 µM (≈ 0.33 µg/mL)
E. faecalis VSE 1; VSE 1, ratio of MIC of vancomycin and MIC of analogue
  MIC-fold improvement vs. vancomycin: 8
E. faecalis VRE 53; Enterococcus faecalis VRE 53 (vancomycin-resistant), read-out: MIC
  MIC: 25 µM (≈ 41.2 µg/mL)
E. faecalis VRE 53; VRE 53, ratio of MIC of vancomycin and MIC of analogue
  MIC-fold improvement vs. vancomycin: 16
[6]; average IC50 used for TI in Table S5, >250 entered as 250, read-out: IC50
  IC50: 165 µM
[6]; average of L1210, CEM and HeLa, read-out: Toxicity (IC50) Average
  IC50: 165 µM
MRSA
  MBC relative to MIC: MBC equaling their MIC values
[7]; Staphylococcus aureus VSSA, read-out: MIC
  MIC: 0.20 µM (≈ 0.33 µg/mL)
[7]; VSSA, ratio of MIC of vancomycin and MIC of analogue
  MIC-fold improvement vs. vancomycin: 4
MRSA KS6; MRSA KS6, ratio of MIC of vancomycin and MIC of analogue
  MIC-fold improvement vs. vancomycin: 2
MRSA KS6; Staphylococcus aureus MRSA KS6, read-out: MIC
  MIC: 0.39 µM (≈ 0.643 µg/mL)
MRSA KS89; MRSA KS8, ratio of MIC of vancomycin and MIC of analogue
  MIC-fold improvement vs. vancomycin: 2
MRSA KS89; Staphylococcus aureus MRSA KS8, read-out: MIC
  MIC: 0.39 µM (≈ 0.643 µg/mL)
MRSA KS1; MRSA KS1, ratio of MIC of vancomycin and MIC of analogue
  MIC-fold improvement vs. vancomycin: 2
MRSA KS1; Staphylococcus aureus MRSA KS1, read-out: MIC
  MIC: 0.39 µM (≈ 0.643 µg/mL)
[8]
  MIC-fold improvement vs. vancomycin: 11

From PMC6001238, “Iterative Chemical Engineering of Vancomycin Leads to Novel Vancomycin Analogs With a High in Vitro Therapeutic Index” (Frontiers in Microbiology, 2018)
